Measurements from patent publication US12091425B2 (AMGEN INC., priority 2016, dated 2024).

Assays:
[1] = target: T1, Mcl-1/Bim interaction, recombinant human Mcl-1 (171-327) (Homo sapiens, UniProt Q07820); experiment: Cell free Mcl-1: Bim Affinity Assay (Mcl-1 HTRF); assay type: binding; conditions: TR-FRET, 0.1 nM Mcl-1 (171-327), 0.05 nM biotin-Bim (51-76)
T1 construct: made in house
Procedure, shortened: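 TR-FRET competition assay with biotinylated human Bim peptide (residues 51-76); reaction plates incubated overnight before reading. IC50 values came from duplicate data fitted to a four-parameter sigmoidal competition curve.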

[2] = tested on: OPM-2 human multiple myeloma cell line; experiment: Cell Viability Assay (OPM-2 10 FBS); assay type: cell-based; conditions: Homo sapiens, OPM-2, 16 h, OPM-2 cells, 16 h, CellTiter-Glo
Procedure, shortened: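 IC50 from 4-parameter logistic fit of CellTiter-Glo luminescence. 3000 cells/well, 10% FBS medium, serial compound dilutions, 16 h, 37 °C/5% CO2; read 25 min post-reagent.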

T1 sequence (Q07820 171-327): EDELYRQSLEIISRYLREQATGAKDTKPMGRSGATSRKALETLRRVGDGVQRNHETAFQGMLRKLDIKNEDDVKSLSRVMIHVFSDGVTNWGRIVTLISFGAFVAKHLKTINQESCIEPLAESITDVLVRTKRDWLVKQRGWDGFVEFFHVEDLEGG

Compound `C[C@@H]1[C@@H](C)C[C@H](CCO)/C=C/[C@@H]2CC[C@H]2CN2C[C@@]3(CCCc4cc(Cl)ccc43)COc3ccc(cc32)C(=O)NS1(=O)=O` [Example 113, (1S,3′R,6′S,7′E,9′R,11′S,12′R)-6-chloro-9′-(2-hydroxyethyl)-11′,12′-dimethyl-3,4-dihydro-2H,15′H-spiro[naphthalene-1,22′-[20]oxa[13]thia[1,14]diazatetracyclo[14.7.2.0^3,6.0^19,24]pentacosa[7,16,18,24]tetraen]-15′-one 13′,13′-dioxide] has an IC50 [1] of 0.998 nM and an IC50 [2] of 1150 nM.

`COCC[C@@H]1/C=C/[C@@H]2CC[C@H]2CN2C[C@@]3(CCCc4cc(Cl)ccc43)COc3ccc(cc32)C(=O)NS(=O)(=O)[C@H](C)[C@@H](C)C1` [Example 114, (1S,3′R,6′S,7′E,9′R,11′S,12′R)-6-chloro-9′-(2-methoxyethyl)-11′,12′-dimethyl-3,4-dihydro-2H,15′H-spiro[naphthalene-1,22′-[20]oxa[13]thia[1,14]diazatetracyclo[14.7.2.0^3,6.0^19,24]pentacosa[7,16,18,24]tetraen]-15′-one 13′,13′-dioxide] showed an IC50 [1] of 3.6 nM and an IC50 [2] of 3400 nM.

For `CO[C@H]1/C=C/[C@H](CCO)C[C@@H](C)S(=O)(=O)NC(=O)c2ccc3c(c2)N(C[C@@H]2CC[C@H]21)C[C@@]1(CCCc2cc(Cl)ccc21)CO3` [Example 202, (1S,3′R,6′R,7′S,8′E,10′R,12′R)-6-chloro-10′-(2-hydroxyethyl)-7′-methoxy-12′-methyl-3,4-dihydro-2H,15′H-spiro[naphthalene-1,22′-[20]oxa[13]thia[1,14]diazatetracyclo[14.7.2.0^3,6.0^19,24]pentacosa [8,16,18,24]tetraen]-15′-one 13′,13′-dioxide], the IC50 [1] was 0.218 nM and the IC50 [2] was 566 nM.

Compound `CO[C@H]1/C=C/[C@H](CC#N)C[C@@H](C)S(=O)(=O)NC(=O)c2ccc3c(c2)N(C[C@@H]2CC[C@H]21)C[C@@]1(CCCc2cc(Cl)ccc21)CO3` [Example 203, ((1S,3′R,6′R,7′S,8′E,10′R,12′R)-6-chloro-7′-methoxy-12′-methyl-13′,13′-dioxido-15′-oxo-3,4-dihydro-2H-spiro[naphthalene-1,22′-[20]oxa[13]thia[1,14]diazatetracyclo[14.7.2.0^3,6.0^19,24]pentacosa [8,16,18,24]tetraen]-10′-yl)acetonitrile] has an IC50 [1] of 0.366 nM and an IC50 [2] of 2790 nM.

Compound `COCC[C@H]1/C=C/[C@H](OC)[C@@H]2CC[C@H]2CN2C[C@@]3(CCCc4cc(Cl)ccc43)COc3ccc(cc32)C(=O)NS(=O)(=O)[C@H](C)C1` [Example 204, (1S,3′R,6′R,7′S,8′E,10′R,12′R)-6-chloro-7′-methoxy-10′-(2-methoxyethyl)-12′-methyl-3,4-dihydro-2H,15′H-spiro[naphthalene-1,22′-[20]oxa[13]thia[1,14]diazatetracyclo[14.7.2.0^3,6.0^19,24]pentacosa [8,16,18,24]tetraen]-15′-one 13′,13′-dioxide] has an IC50 [1] of 0.732 nM and an IC50 [2] of 686 nM.

`CCO[C@@H]1/C=C/CCCS(=O)(=O)NC(=O)c2ccc3c(c2)N(C[C@@H]2CC[C@H]21)C[C@@]1(CCCc2cc(Cl)ccc21)CO3` [Example 209, (1S,3′R,6′R,7′R,8′E)-6-chloro-7′-ethoxy-3,4-dihydro-2H,15′H-spiro[naphthalene-1,22′-[20]oxa[13]thia[1,14]diazatetracyclo[14.7.2.0^3,6.0^19,24]pentacosa [8,16,18,24]tetraen]-15′-one 13′,13′-dioxide] gave an IC50 [1] of 5.25 nM and an IC50 [2] of 5370 nM.

`COCCO[C@@H]1/C=C/CCCS(=O)(=O)NC(=O)c2ccc3c(c2)N(C[C@@H]2CC[C@H]21)C[C@@]1(CCCc2cc(Cl)ccc21)CO3` [Example 210, (1S,3′R,6′R,7′R,8′E)-6-chloro-7′-(2-methoxyethoxy)-3,4-dihydro-2H,15′H-spiro[naphthalene-1,22′-[20]oxa[13]thia[1,14]diazatetracyclo[14.7.2.0^3,6.0^19,24]pentacosa [8,16,18,24]tetraen]-15′-one 13′,13′-dioxide] gave an IC50 [1] of 1.59 nM and an IC50 [2] of 1530 nM.
